# Columns and labels:
# Assay type in all cases: cell-based, human
# [1] = test system: iPSCs; assay: Optimizing 3D differentiation of iPSCs to definitive endoderm (Experiments 21, 22, 23)
# Description: In this experiment, the effect of adding PI-103 to Experiment 21/22 Medium B was tested. The effect of transitioning to 2D culture at the AFE stage was also tested. Differentiation of iPSCs into DE requires proper timing for introducing small molecules and growth factors. On Day 1-2, Experiment 21/22 Media A comprising DMEM-F12 and factors/small molecules namely Activin A (100 ng/mL), CHIR99021 2 μM, ITS (1:1000), KSR (0.05%), Pen strep (100×), PI-103 (25 nM) and NEAA (100×) was added. On day 3-5, Experiment 21/22 Media B comprising DMEM-F12 and factors/small molecules namely Activin A (100 ng/mL), LDN193189 (200 nM), PI-103 (25 nM), Insulin-Transferrin-Selenium (ITS-G) (1:1000), KSR (0.05%), Pen strep (100×) and NEAA (100×) was added. In Experiment 22, PI-103 (25 nM) was excluded. The effect of transitioning from 3D to 2D culture at VPE stage was tested. The impact of CHIR99021 addition to Experiment 23 Medium B was tested. Differentiation of iPSCs into DE requires proper timing for introducing small molecules and growth factors. On day 1-2, cells were cultured in Experiment 23 Media A comprising DMEM-F12 and small molecules/factors namely Activin A (100 ng/mL), CHIR99021 2 μM, ITS (1:1000), KSR (0.05%), Pen strep (100×), PI-103 (25 nM), and NEAA (100×). On day 3-4, Experiment 23 Media B containing DMEM-F12 and small molecules/factors namely Activin A (100 ng/mL), CHIRR9901 (2 μM), LDN193189 (200 nM), PI-103 (25 nM), Insulin-Transferrin-Selenium (ITS-G) (1:1000), KSR (0.05%), Pen strep (100×), and NEAA (100×). On day 5, Experiment 23 Media B containing DMEM-F12 and small molecules/factors namely Activin A (100 ng/mL), LDN193189 (200 nM), PI-103 (25 nM), Insulin-Transferrin-Selenium (ITS-G) (1:1000), KSR (0.05%), Pen strep (100×), NEAA (100×) was added. Experiment 21 and Experiment 23 described in Example 11 were designed to identify optimal conditions for 3D differentiation to DE. […] Sox17/FoxA2 double positive were higher in Experiment 23, whereas there were more Sox17/FoxA2 negative cells in Experiment 21 and Experiment 22.
# [2] = test system: TEP populations; assay: Oct4 and Nanog expression in TEP populations treated with PluriSIn-1
# Description: On days 19-22, cells were cultured in TEC media. On day19, equal amount of freshly made TEC media (500 μl) was replaced gently without disturbing the aggregates. TEC media was prepared to include Basal Media: DMEM-F12, FGF10 (50 ng/ml), IL-22 (20 ng/ml), FGF7/KGF (50 ng/ml), RANKL/TRANCE (50 ng/ml), BMP4 (50 ng/ml), FGF8b (50 ng/ml), CHIRR99 (2 μM), Ascorbic Acid (10 μM), Insulin-Transferrin-Selenium (ITS-G) (1:1000), KSR (0.0025%), Pen strep (1:200), B27 (without VIT A) (1:200), Glutamax (1:100), BME (1:100), N2(1:100), NEAA (1:400), Glutamax (100×), and BME (100×). On day 20, equal amount of freshly prepared TEC media (500 ul) along with Plurisin #1(20 μM) was added (Groups-Untreated and Treated). On day21, equal amount of freshly made TEC media (500 ul) was replaced gently without disturbing the aggregates. On day22, the cells were treated with Accutase and were frozen using Hypothermosol-FRS Media. The cells were split into the following groups for experimentation. Group 37FT1 (8.85M Treated and 9.5M untreated groups) was thawed in 3D and maintained in TEC media (Y27-10 uM on day1) for 6 days. On Day 6, cells were treated with 20 μM Plurisin #1 (24 hours) and were transplanted on day7 into 4 animals. Group 37FT2 (8.85M per plate) was thawed in 3D and maintained in TEC media (Y27-10 uM on day1) for 6 days. […]
# [3] = test system: TEPs; assay: Extended culture of TEPs with TEP medium supplemented with growth factors (Experiments 29, 30); conditions: TEP medium supplemented with FGF7, FGF10 and RANKL together, Experiment 29 and 30
# Description: For this differentiation step, VPE cells were cultured in thymic cell media e.g. TEP media or TEC media. On days 13-18, media was replaced for Experiment 29 TEP media containing Basal Media: DMEM-F12, FGF10 (50 ng/ml), BMP4 (50 ng/ml), FGF8b (50 ng/ml), CHIRR99 (2 μM), Ascorbic Acid (10 μM), Insulin-Transferrin-Selenium (ITS-G) (1:1000), KSR (0.0025%), Pen strep (1:200), B27 (without VIT A) (1:200), Glutamax (1:100), BME (1:100), N2(1:100), and NEAA (1:400). On day 13, equal amount of freshly made TEP media (500 ul) was added gently without disturbing the aggregates. On day 14-18, 50% of supernatant was removed and freshly prepared TEP media (500 ul) was added per well. On days 19-22, media was replaced with TEC media containing Basal Media: DMEM-F12, FGF10 (50 ng/ml), FGF7/KGF (50 ng/ml), RANKL/TRANCE (50 ng/ml), BMP4 (50 ng/ml), FGF8b (50 ng/ml), CHIRR99 (2 μM), Ascorbic Acid (10 μM), Insulin-Transferrin-Selenium (ITS-G) (1:1000), KSR (0.0025%), Pen strep (1:200), B27 (without VIT A) (1:200), Glutamax (1:100), BME (1:100), N2(1:100), NEAA (1:400), Glutamax (100×), and BME (100×). On days 20-22, 50% of supernatant was removed and freshly prepared TEC media (500 ul) was added per well. On day 22, Experiment 29B was reseeded as single cells in suspension (3D) and on Geltrex coated plates (2D). Remaining cells were frozen. Frozen Experiment 29B were thawed in suspension and maintained in TEC media.
# For this differentiation step, VPE cells were cultured in thymic cell media e.g. TEP media or TEC media. […]
# In experiments 16 through 23, the expression of FOXN1 and other markers expression by Day5 of TEP differentiation. […] In Exp 29-TEPs, FOXN1 expression was detected at week 1 of TEP stage. When TEPs were reseeded into 2D culture, no FOXN1 expression was detected after 1 week but FOXN1 was detected by week 2 in culture. In Exp29B-TEP2-3D, where single cell TEP were resuspended into 3D-aggregate culture, FOXN1 expression was detected already by 1 week and became even higher by second week.
# [4] = test system: Spheroids induced to differentiate from iPSC state to TEP; assay: Effect of timing of BMP addition on developmental gene expression in spheroids differentiating from iPSC to TEP; conditions: with or without BMP at early and late TEP stages
# Text: Differentiation of DE cells to thymic cells can be promoted by adding factors known to be important for DE to thymic differentiation. An example is BMP which is known to be crucial for the development and maturation of thymic progenitor cells from the third pharyngeal pouch. The impact of the timing of addition of BMP was explored (FIG. 2). Spheroids were induced to differentiate from iPSC state to TEP and timing of addition of BMP was varied. At different stages (DE, AFE, VPE, early and late TEP) spheroids were collected and analyzed for biomarkers related to the different stages. We compared condition with or without BMP at early and late TEP stages.
molecule,measurement,setting,value
"Cc1c[nH]c(-c2cnc(NCCNc3ccc(C#N)cn3)nc2-c2ccc(Cl)cc2Cl)n1 [CHIRR99, CHIR99021]",differentiation,"[1]; 2 μM added to Experiment 23 Medium B, day 3-4",enhance differentiation
same,differentiation efficiency to DE,[1]; Experiment 23 with Wnt activator versus Experiment 21 and 22 without,increased differentiation efficiency to DE
O=C(NNc1ccccc1)c1ccncc1 [PluriSIn-1],Oct4 and Nanog expression,"[2]; one 24-hour pulse before freezing and one 24-hr pulse after thawing, compared to one pulse",lower Oct4 and Nanog expression
same,Oct4 and Nanog expression,"[2]; one dose alone, different iPSC cell line",sufficient to reduce Oct4 and Nanog expression
Oc1cccc(-c2nc(N3CCOCC3)c3oc4ncccc4c3n2)c1 [PI-103],DE differentiation,"[1]; PI-103 (25 nM) added to Experiment 21/22 Medium B, day 3-5, excluded in Experiment 22",enhanced DE differentiation
"RANKL: growth factor important for late maturation of TEPs to TECs (protein, UniProt O14788 140-317, looked up) Tumor necrosis factor ligand …: IRAEKAMVDGSWLDLAKRSKLEAQPFAHLTINATDIPSGSHKVSLSSWYHDRGWAKISNMTFSNGKLIVNQDGFYYLYANICFRHHETSGDLATEYLQLMVYVTKTSIKIPSSHTLMKGGSTKYWSGNSEFHFYSINVGGFFKLRSGEEISIEVSNPSLLDPDQDATYFGAFKVRDID",duration of TEP culture while maintaining the expression of FOXN1,[3],extended beyond 5 days and up to 2 weeks
"FGF10: growth factor important for late maturation of TEPs to TECs (protein, UniProt O15520 38-208, looked up) Fibroblast growth factor 10: QALGQDMVSPEATNSSSSSFSSPSSAGRHVRSYNHLQGDVRWRKLFSFTKYFLKIEKNGKVSGTKKENCPYSILEITSVEIGVVAVKAINSNYYLAMNKKGKLYGSKEFNNDCKLKERIEENGYNTYASFNWQHNGRQMYVALNGKGAPRRGQKTRRKNTSAHFLPMVVHS",duration of TEP culture while maintaining the expression of FOXN1,[3],extended beyond 5 days and up to 2 weeks
"FGF7: growth factor important for late maturation of TEPs to TECs (protein, UniProt P21781 32-194, looked up) Fibroblast growth factor 7: CNDMTPEQMATNVNCSSPERHTRSYDYMEGGDIRVRRLFCRTQWYLRIDKRGKVKGTQEMKNNYNIMEIRTVAVGIVAIKGVESEFYLAMNKEGKLYAKKECNEDCNFKELILENHYNTYASAKWTHNGGEMFVALNQKGIPVRGKKTKKEQKTAHFLPMAIT",duration of TEP culture while maintaining the expression of FOXN1,[3],extended beyond 5 days and up to 2 weeks
"BMP: growth factor BMP4, crucial for development and maturation of thymic progenitor cells (protein, UniProt P12644 293-408, looked up, Bone morphogenetic protein 4, growth factor BMP4, crucial for development and maturation of thymic progenitor cells) Bone morphogenetic protein 4: SPKHHSQRARKKNKNCRRHSLYVDFSDVGWNDWIVAPPGYQAFYCHGDCPFPLADHLNSTNHAIVQTLVNSVNSSIPKACCVPTELSAISMLYLDEYDKVVLKNYQEMVVEGCGCR",PAX1 and PAX9 expression,[4],suppressed
same,TBX1 and HOXA3 expression,[4],upregulated
